Results: patent US9617324B2, “Ameliorating agent for blood-brain barrier dysfunction” (Nagasaki University, priority 2012, dated 2017)
“Also recorded” adds a separate entry of the source. Where two headings read alike, the source gives them in different places. No end group written: not given here.

Columns and labels:
[1] = tested on: model mice of cerebral ischemia (tMCAO); test: tMCAO (ischemia for an hour, reperfusion) model, clinical scores of motor dysfunction; assay type: in vivo, mouse; conditions: for protective effect on motor dysfunction: i.v. after an hour after ischemia, 1 to 10 mg/kg
Protocol: The model mice of cerebral ischemia produced by left middle cerebral artery occlusion in C57BL/J6 mice were maintained for an hour, followed by reperfusion. P30 (1 mg/kg or 3 mg/kg) or P6 (1 mg/kg) was administered into the caudal vein after an hour of reperfusion. Thereafter, the course of the mice was observed every 24 hours to evaluate motor function and existence. The clinical scores showing motor dysfunction are evaluated using the following five grades: 1: unable to completely extend the right front limb, 2: clockwise circling behavior, 3: unable to hold the position and incline to the right, 4: disappearance of spontaneous movement, and 5: death.
In FIG. 5, the data indicated by white squire indicate values when 0.1% DMSO in PBS (vehicle) was administered into the caudal vein in an amount of 100 μl/10 g after an hour of tMCAO for an hour. […] Black circle and black rhombus in the upper graph indicate the results of 1 mg/kg and 3 mg/kg P30 intravenous (i.v.) administration, respectively, and black circle in the lower graph indicates the results of 1 mg/kg P6 intravenous (i.v.) administration.
(§1) To evaluate the degree of motor function disorders associated with cerebral ischemia, the neurological scores (Clinical Scores) according to the following definition were used. In addition, two grade evaluation was carried out using numerical values 1 to 4 (when scores 1 and 2 were shown, 1.5 was used).
(§2) 1: motor function disorders of the right front limb, 2: one-directional behavior, 3: unable to hold the position and incline, 4: disappearance of spontaneous movement, and 5: death.

[2] = tested on: tMCAO model (ischemia for 4 hours), tPA-induced motor dysfunction; test: tMCAO for four hours with tPA: clinical score and mortality after a day; assay type: in vivo, mouse; conditions: for death of mice: 10 mg/kg peptide with tPA after 4 hours of tMCAO ischemia
Protocol: After tMCAO for four hours, the clinical score and mortality rate were evaluated after a day (FIG. 8). […] The tMCAO for four hours corresponds to the state after 3 hours from the onset of ischemic diseases.
as §1, §2

[3] = tested on: thrombotic cerebral infarction PIT model; test: PIT model: damaged cerebral region by TTC staining; assay type: in vivo, mouse; conditions: for damaged cerebral region by TTC staining: second Example 13
[4] = tested on: tMCAO model (ischemia for 4 hours), tPA-induced cerebral hemorrhage
Protocol: Mice were anesthetized with 3% isoflurane (Escain (registered trademark), Mylan Seiyaku Ltd., Tokyo, Japan) (Small animal anesthetizer MK-A100, Muromachi Kikai Co., Ltd., Tokyo, Japan). On a constant-temperature table at 37° C. (Ikemoto Scientific Technology Co., Ltd., Tokyo, Japan), the skin in the pharyngeal region is cut lengthwise into about 2 cm with scissors. The skin was drawn to the right using a hard silk thread (hard No. 8, Natsume Seisakusho Co., Ltd.) to secure a visual field. Using a stereoscopic microscope, the left common carotid artery which is located on the left side of the trachea is secured with a hard silk thread while exfoliating connective tissue, nerves and the like. By following the common carotid artery upward, the artery is separated into the internal carotid artery and the external carotid artery, and the external carotid artery on the left near side is tightly tied at two points with a soft silk thread and the space between the points is cut. A thin vessel extending upward from the internal carotid artery is secured with a soft silk thread. The soft silk thread and hard silk thread are strongly drawn to stop blood flow and an incision is made in the internal carotid artery with scissors. From that, an obturator is inserted 1 to 1.5 cm and the middle cerebral artery is occluded. The internal carotid artery was tied together with the obturator using a soft silk thread to fix the obturator. A soft silk thread is passed under the hard silk thread drawing and the common carotid artery is tied thereby on the near side of the hard silk thread, and the hard silk thread is then removed. The breath is sutured at two points with a soft silk thread. In the case of the model of transient middle cerebral artery occlusion (tMCAO) of the present problem, anesthesia was applied to the mice with 3% isoflurane again after an hour or 4 hours on a constant-temperature table at 37° C., and the soft silk thread suturing the breath is untied to open the breath. The soft silk thread tying the internal carotid artery was loosened and the obturator was withdrawn, and the internal carotid artery was immediately tied again.

[5] = tested on: thrombotic cerebral infarction PIT model
[6] = tested on: proMMP-9; test: Gelatin zymography of proMMP-9 activity after retinal ischemia; assay type: in vivo, mouse; conditions: 1 pmol
From the text: It is known that a tight junction protein, occluding, is degraded by metalloproteinases (MMP) whose expression is increased by ischemia (J Cereb Blood Flow Metab, 2007. 27(4): p. 697-709). It is believed that MMP-9, in particular, plays a primary role in a failure of a blood-organ barrier by ischemia (J Cereb Blood Flow Metab, 2000. 20(12): p. 1681-9).
The expression level of MMP-9 is commonly low and the expression is derived by various stimuli by ischemia.

[7] = peptide in combination with tPA, peptide dose not given
[8] = second Example 13, peptide in combination with tPA, peptide dose not given

Question: Which “protective effect on motor dysfunction” value [1] does the source give for “pEEVNEE (not fully specified (residue 1); listed as Homo sapiens) [Peptide B]” here?
Answer: dose-dependently protective effect on motor dysfunction; also recorded: high protective activity

Question: And the “dose showing the (greatest) protective effect on motor dysfunction” value ([1]; i.v., tMCAO 60 min ischemia)?
Answer: 10 mg/kg

Question: What about the “tPA-induced exacerbation of motor dysfunction” value ([2]; 10 mg/kg peptide coadministered i.v. with tPA, 24 hours after ischemia) of the same substance?
Answer: tended to inhibit

Question: And the “damaged cerebral region by TTC staining” value [3, 7]?
Answer: 42±6.1%

Question: And the tPA-induced cerebral hemorrhage ([4]; 10 mg/kg peptide coadministered with tPA)?
Answer: did not have an influence

Question: What about the Clinical score [5, 8] of the same substance?
Answer: 1±0

Question: How did the “hemorrhage in the cerebral cortex region” value ([4]; mouse, in vivo, iv, 1 mg/kg) turn out when NEVDQE [Peptide A, NEVDQE] was run?
Answer: 0.09±0.01 mm^2

Question: What about the “hemorrhage in the cerebral cortex region” value ([4]; mouse, in vivo, iv, 3 mg/kg) of the same substance?
Answer: 0.06±0.01 mm^2

Question: What about the “hemorrhage in the cerebral cortex region” value ([4]; mouse, in vivo, iv, 10 mg/kg) of the same substance?
Answer: 0.08±0.01 mm^2

Question: “Peptide Q: P6 derivative peptide (EEVDQE)” was tested. Which “damaged cerebral region by TTC staining” value [3, 7] did it give?
Answer: 55±1.4%

Question: And the Clinical score [5, 8]?
Answer: 1.7±0.5

Question: How did the “protective effect on motor dysfunction” value [1] turn out when “pEEVDEE (not fully specified (residue 1); listed as Homo sapiens) [Peptide D]” was run?
Answer: not as good as that of Peptide A and Peptide B

Question: And the death of mice [2]?
Answer: all mice were died

Question: What about the “damaged cerebral region by TTC staining” value [3, 7] of the same substance?
Answer: 52±7.2%

Question: And the Clinical score [5, 8]?
Answer: 1±0

Question: For “Peptide L: P6 derivative peptide (NEIDEE)”, which “damaged cerebral region by TTC staining” value [3, 7] is on record?
Answer: 46±5.6%

Question: And the Clinical score [5, 8]?
Answer: 1.3±0.2

Question: Which death of mice [2] does the source give for NEVDEE-NH2 [Peptide E, NEVDEE-NH2] here?
Answer: all mice were died

Question: Which results are given for “Peptide R: P6 derivative peptide (EEVDQE)”?
Answer: damaged cerebral region by TTC staining [3, 7]: 54±4.5%; Clinical score [5, 8]: 1.1±0.1

Question: How did the “damaged cerebral region by TTC staining” value [3, 7] turn out when “Peptide S: P6 derivative peptide (EEVDEE)” was run?
Answer: 51±5.7%

Question: And the Clinical score [5, 8]?
Answer: 1.1±0.2

Question: How did the “mortality rate after a day of ischemia” value ([2]; 10 mg/kg tPA alone) turn out when “tPA: thrombolytic agent, tissue plasminogen activator, purchased from Kyowa Hakko Kirin Co., Ltd. [reference compound]” was run?
Answer: 35.7%

Question: And the “motor dysfunction (clinical score) after a day” value ([2]; 10 mg/kg tPA alone, immediately before reperfusion)?
Answer: deteriorated

Question: And the “motor dysfunction score after a day” value ([2]; 10 mg/kg tPA treatment, tMCAO ischemia for 4 hours, score 2 without tPA)?
Answer: 3.5

Question: And the “damaged cerebral region by TTC staining” value ([3]; tPA alone after 6 hours of PIT treatment)?
Answer: 44±2.6%

Question: And the “protective effect (infarct region)” value ([3]; tPA administered after 6 hours of ischemia)?
Answer: the protective effect was not confirmed

Question: And the infarct region ([3]; tPA treatment after an hour after thrombus formation)?
Answer: significant decrease in the infarct region

Question: What about the “protective effect (infarct region)” value ([3]; tPA treatment time delayed (2 to 4 hours)) of the same substance?
Answer: protective effect was reduced

Question: What about the hemorrhagic region ([4]; mouse, in vivo, iv, 10 mg/kg) of the same substance?
Answer: 0.7±0.2 mm^2

Question: What about the Clinical score ([5]; Example 12, tPA-alone after 6 hours of PIT treatment) of the same substance?
Answer: 1.5±0.2

Question: And the Clinical score ([5]; second Example 13, tPA alone after 6 hours of PIT treatment)?
Answer: 1.4±0.1

Question: Which “increase in activity of proMMP-9 by ischemia” value [6] does the source give for “Ac-NEVDEE-NH2 [Peptide F, N-acetyl-P6-amide]” here?
Answer: effect equal to that of P6

Question: What about the Clinical score [5, 8] of the same substance?
Answer: 1.2±0.2

Question: With NEVDEE [Peptide P6, NEVDEE] as the substance, how does the cerebral hemorrhage ([4]; mouse, in vivo) read?
Answer: trend to exacerbate cerebral hemorrhage

Question: Which results are given for “Peptide P: P6 derivative peptide (EEVNEE)”?
Answer: damaged cerebral region by TTC staining [3, 7]: 47±5.1%; Clinical score [5, 8]: 1.1±0.1
